Source: patent publication US10646567B2, “Methods of treating cancer using PD-1 axis binding antagonists and MEK inhibitors” (Genentech, Inc., priority 2011, dated 2020)

Legend:
[1] = tested on: human melanoma cell lines and human colorectal cell lines; assay: Surface MHC-I expression on human tumor cell lines (FACS); type: cell-based; conditions: 1 micromolar, 24 hours, compared to vehicle treated cells
Description: To determine if treatment with MEK inhibitor (MEKi) enhanced immunogenicity of tumor cells, surface expression of MHC-I on tumor cell lines treated with MEK inhibitors GDC-0973 and G-38963 was assayed. Briefly, human melanoma cell lines (Malme-3M, A2058, […][…], SK23, SKMEL-28, 537 Mel, RPMI-795) and human colorectal cell lines (Colo 320 DM, Colo 205, WiDr, Colo 741, RKO, DLD-1, HM7, HCT-15) were treated with 1 micromolar […]-0973 or G-38963, BRAF inhibitor (BRAFi) GDC-0879, or DMSO vehicle for 24 hours. Following treatment, cells were stained for surface MHC Class I expression with an antibody against […] for subsequent FACS analysis. Data shown is for treatment […]-0973. Labeled isotype-matched antibodies were used to determine the level of non-specific staining.

[2] = tested on: mouse tumor cell lines (MC38, B16.F10, CT26); assay: Surface MHC-I expression on mouse tumor cell lines (FACS); type: cell-based; conditions: 1 micromolar, 24 hours, compared to vehicle treated cells
Description: To determine if treatment with MEK inhibitor (MEKi) enhanced immunogenicity of mouse tumor cells similarly to human tumor cells, surface expression of MHC-I on mouse tumor cell lines treated with MEKi GDC-0973 was assayed. Briefly, mouse melanoma cell lines ([…]) and a mouse colorectal cell line (CT26) were treated with MEKi GDC-0973, G-38963 or vehicle. Briefly, cells were stimulated for 24 hours with 1 micromolar MEK inhibitor or DMSO vehicle control. Following treatment, cells were surfaced stained with an antibody against MHC-I (H-2D) and expression was assayed by subsequent FACS analysis. Labeled isotype-matched antibodies were used to determine the level of non-specific staining.

human CD8+ T cells = assay: CD8+ T cell proliferation (3H-thymidine); type: cell-based; conditions: for T cell receptor induced proliferation, anti-CD3 stimulation: 0.01 μM MEKi; for T cell activation, co-stimulation with anti-CD3 and anti-CD28: 10 μM to 0.001 μM MEKi; for T cell proliferation, anti-CD3 stimulation: all MEKi concentrations tested (10 μM to 0.001 μM)
Description: Recent studies have shown that MEK inhibitor treatment impairs T lymphocyte function (Boni et al., Cancer Res., 70(13), 2010). To confirm that MEK inhibitor treatment impaired CD8+ T cells, T cells were treated with MEKi in combination with T cell stimulation signals and assayed for T cell proliferation. Briefly, human CD8+ T cells were purified from whole blood using StemCell Technologies human CD8 RosetteSep as per manufacturer's instructions. Purified cells were plated at 200,000 per well in triplicate in 96-well U-bottom plates with 200,000 per well of either anti-CD3 or anti-CD3/anti-CD28 Dynabeads (Invitrogen). MEK inhibitors GDC-0973 and G-38963 were titrated 10-fold from 10 μM to 0.001 μM such that the final culture concentration was 0.5% DMSO in a total volume of 200 μl per well. […] Gluta-MAX, sodium pyruvate, penicillin/streptomycin, and non-essential amino acids. At 48 hours, wells were pulsed with 1 μCi/well of 3H-thymidine and cultured an additional 16 hours prior to freezing and harvest.

[3] = tested on: human monocyte-derived dendritic cells; assay: Maturation and activation of monocyte-derived dendritic cells with anti-CD40 (FACS); type: cell-based; conditions: for frequency of DCs expressing surface markers of DC maturation and activation: increasing concentrations 0.001 μM to 10 μM, anti-CD40 co-stimulation
Description: Briefly, human monocytes were purified from whole blood using StemCell Technologies human monocyte RosetteSep as per manufacturer's instructions. Monocytes were seeded in T175 flasks at approximately 0.5-1.0×10^6 per ml in 50 ng/ml human GM-CSF and 100 ng/ml human IL-4 for 7 days total, with half-media exchanges every 2 days. […] MEK inhibitors and BRAF inhibitor were titrated 10-fold from 10 μM to 0.001 μM such that the final culture concentration was 0.5% DMSO in a total volume of 200 μl per well. Forty-eight hours later, cells were harvested and transferred to a 96-well V-bottom plate. […] HLA-DR,-DP,-DQ-FITC, HLA-ABC-PE, CD83-APC, CD14-FITC, CD80-PE, and CD86-APC. Propidium iodide was included to exclude dead cells. Samples were run on a BD FACSCaliber flow cytometer and data was analyzed using FlowJo software (Tree Star, Inc.).

[4] = tested on: serum IL-10 and KC in tumor bearing animals; assay: Serum cytokine levels in tumor bearing mice (Bio-Plex); type: in vivo; conditions: melanoma and colorectal models, 7 days after treatment
Description: Briefly, 7 days after treatment, mice were anaesthetized and bled retro-orbitally for serum.

colorectal tumors = assay: Colorectal tumor mouse model, G-38963 and anti-PD-L1; type: in vivo, mice; conditions: early (200 mm3) or late (450 mm3) intervention; anti-PD-L1 10 mg/kg ip 3x/week for 3 weeks; G-38963 75 mg/kg orally daily 21 days
Description: (§1) To determine if MEKi enhanced the anti-tumor effect of anti-PD-L1 antibodies, mouse models for colorectal tumors were treated with the combination treatment. Briefly, mice were inoculated subcutaneously with tumor cells and allowed to grow tumors. When tumor bearing mice achieved a mean tumor volume of 200 mm3 (FIG. 7A) or 450 mm3 (FIG. 7B), mice were randomly assigned to 1 of 4 treatment groups. […] Mice were monitored for tumor growth and body weight changes.

[5] = tested on: Cloudman S91 melanoma tumors; assay: Melanoma tumor mouse model; type: in vivo, mice; conditions: anti-PD-L1 10 mg/kg ip 3x/week for 3 weeks; G-38963 75 mg/kg orally daily 21 days
Description: as §1, with “melanoma” for “colorectal”, “100-200 mm3,” for “200 mm3 (FIG. 7A) or 450 mm3 (FIG. 7B),”

[6] = tested on: human peripheral blood mononuclear cells; assay: Surface MHC-I expression on human PBMCs (FACS); type: cell-based; conditions: 1 μM or 3 μM, 24 hours; CD4+ T cells, CD8+ T cells, B cells, monocytes; compared to vehicle
Description: To determine if enhanced cell surface expression of MHC-I is specific to tumor cells, the effect of MEKi treatment on MHC-I expression on human peripheral blood mononuclear cells (PMBCs) was assayed. Briefly, PMBCS were isolated from whole blood by first diluting it with an equal volume of room temperature PBS and subsequent overlay onto Ficoll-filled Leucosep tubes (Greiner Bio-One). […] Gluta-MAX, sodium pyruvate, penicillin/streptomycin, and non-essential amino acids). Cells were plated in 6 well plates at 4×10^6 per well with a total of 4 ml per well. MEK inhibitor GDC-0973 was added at either 1 μM or 3 μM. Cells were harvested 24 hours later and distributed to a 96-well V-bottom plate for FACS staining. […] CD3-FITC, HLA-ABC-PE, CD4-APC, CD19-FITC, and CD14-FITC. Propidium iodide was included to exclude dead cells. Samples were run on a BD FACSCaliber flow cytometer and data was analyzed using FlowJo software (Tree Star, Inc.).

[7] = tested on: CT26 murine colorectal cells; assay: CT26 colorectal tumor model, GDC-0973 dose study (first study); type: in vivo, BALB/c mice
Description: For the first study, female BALB/c mice were inoculated subcutaneously in the unilateral thoracic region with 100,000 CT26 murine colorectal cells in 100 μL of HBSS:matrigel. […] Groups of 10 mice were orally given the following in a volume of 200 μl daily for 21 days: Group 1 received MCT vehicle; Group 2 received 0.5 mg/kg GDC-0973; Group 3 received 1.0 mg/kg GDC-0973; Group 4 received 2.0 mg/kg GDC-0973; Group 5 received 3.0 mg/kg GDC-0973; Group 6 received 4.0 mg/kg GDC-0973; Group 7 received 5.0 mg/kg GDC-0973; Group 8 received 6.0 mg/kg GDC-0973; and Group 9 received 7.5 mg/kg GDC-0973. For both studies, mice were monitored for tumor growth and body weight changes two to three times per week for the duration of the study. […] Fred V. Fowler Company; Newton, Mass.) with length and width measurements perpendicular to one another, and tumor volume was calculated using the equation: Tumor Volume (mm^3)=(Length×Width^2)×0.5 For measurement of body weights, mice were weighed using an Adventura Pro AV812 scale (Ohaus Corporation; Pine Brook, N.J.). Percent body weight change was calculated using the equation: Body weight change (%)=[(WeightDay new−WeightDay 0)/WeightDay 0]×100 Data was analyzed using R, version 2.9.2 (R Development Core Team 2008; R Foundation for Statistical Computing; Vienna, Austria), and the mixed models were fit within R using the nlme package, version 3.1-96 (Pinheiro J et al., R package version 3. 2009, 1-96). Plotting was performed in Prism, version 5.0b for Mac (GraphPad Software, Inc.; La Jolla, Calif.). A mixed modeling approach was used to analyze the repeated measurement of tumor volumes from the same animals over time (Pinheiro J et al., Statistics and Computing, Springer. 2010). This approach addressed both repeated measurements and modest dropouts before study end for reasons classifiable statistically as missing at random (MAR). The fixed effect changes in log2 (volume) by time and dose are modeled as the sum of the main effects and interaction of a natural cubic regression spline basis in time with an auto-determined natural spline basis in dose. Intercepts and growth rates (slopes) were assumed to vary randomly by animal. […] Complete Response (CR) was defined as an individual animal whose tumor volume fell below the Limit of Detection (LOD), at any time during the study. Partial Response (PR) was defined as an individual animal whose tumor volume decreased by 50% of its initial tumor volume at any time during the study. Overall Response Rate (ORR) was defined as the sum of the complete and partial responses. Time To Progression 5X (TTP5X) was defined as the time in days for a group's fitted tumor volume (based upon the mixed modeling analysis described above) to exceed 5 times the starting volume, rounded to the nearest half day and reported as the TTP5X for that group. Linear mixed-effects analysis was also employed to analyze the repeated measurement of body weight changes from the same animals over time.

[8] = tested on: CT26 murine colorectal cells; assay: CT26 colorectal tumor model, anti-PD-L1 and GDC-0973 combination (second study); type: in vivo, BALB/c mice; conditions: GDC-0973 7.5 mg/kg orally daily for 21 days
Description: For the second study, female BALB/c mice were inoculated subcutaneously in the unilateral thoracic region with 100,000 CT26 murine colorectal cells in 100 μL of HBSS:matrigel. When mice achieved a mean tumor volume of approximately 200 mm3, they were randomly assigned to one of six different treatment groups on experimental day 0 and treatment was initiated on experimental day 1.
For both studies, mice were monitored for tumor growth and body weight changes two to three times per week for the duration of the study. For measurement of tumor growth, tumor volume was measured using UltraCal-IV calipers (Model 54-10-111; Fred V. Fowler Company; Newton, Mass.) with length and width measurements perpendicular to one another, and tumor volume was calculated using the equation: Tumor Volume (mm^3)=(Length×Width^2)×0.5
Data was analyzed using R, version 2.9.2 (R Development Core Team 2008; R Foundation for Statistical Computing; Vienna, Austria), and the mixed models were fit within R using the nlme package, version 3.1-96 (Pinheiro J et al., R package version 3. 2009, 1-96). […] A mixed modeling approach was used to analyze the repeated measurement of tumor volumes from the same animals over time (Pinheiro J et al., Statistics and Computing, Springer. 2010). This approach addressed both repeated measurements and modest dropouts before study end for reasons classifiable statistically as missing at random (MAR). The fixed effect changes in log2 (volume) by time and dose are modeled as the sum of the main effects and interaction of a natural cubic regression spline basis in time with an auto-determined natural spline basis in dose. Intercepts and growth rates (slopes) were assumed to vary randomly by animal. Tumor growth inhibition as a percentage of the control-treated group (% TGI) was calculated as the percentage of the area under the fitted curve (AUC) for the respective treatment group per day in relation to the control while the control treated mice were still on study, using the equation: % TGI=100×(1−AUCdose/AUCvehicles)

[9] = tested on: mouse bone marrow dendritic cells; assay: Activation of mouse bone marrow derived dendritic cells (FACS); type: cell-based; conditions: GDC-0973 1 μM, anti-PD-L1 10 μg/ml, 48 hours
Description: Briefly, mouse bone marrow cells were isolated and seeded at 2×10^6 per 10 ml total volume per 10 cm non-tissue culture treated dishes with 40 ng/ml mouse GM-CSF for 7 days. Fresh media was half-exchanged every 2-3 days. Culture medium was RPMI-1640 with 10% fetal bovine serum, 20 μM HEPES, 55 μM 2-mercaptoethanol, 50 μg/ml gentamicin, and 1:100 dilutions of the following supplements from Gibco: Gluta-MAX, sodium pyruvate, penicillin/streptomycin, and non-essential amino acids. On day 7 all cells were harvested and washed, then seeded at 100,000 cells/well in a 96-well flat-bottom plate. MEK inhibitor GDC-0973 was added at a final concentration of 1 μM, anti-PDL1 human/mouse reverse chimera or anti-Ragweed mouse IgG2a isotype control (Genentech PUR 22251) were added at 10 μg/ml. […] After 48 hours of stimulation, cells were harvested and transferred to a 96-well V-bottom plate. Samples were first Fc receptor blocked (purified anti-CD16/CD32 from BD Biosciences, 5 μg/ml) and then stained with I-A/I-E-FITC, H-2Db/H-2Kb-biotin (followed by streptavidin-PE), CD11c-APC, CD86-FITC, and CD80-PE (all from BD Biosciences). Propidium iodide was included to exclude dead cells. Samples were run on a BD FACSCaliber flow cytometer and data was analyzed using FlowJo software (Tree Star, Inc.).

Compound: O=C(NOCCO)c1oc2ccncc2c1Nc1ccc(I)cc1F [Compound G-38963]
- cell surface expression of MHC-I [1]: upregulated
- cell surface expression of MHC-I [2]: upregulated
- T cell receptor induced proliferation, anti-CD3 stimulation (human CD8+ T cells): nearly complete inhibition
- T cell activation, co-stimulation with anti-CD3 and anti-CD28 (human CD8+ T cells): sufficient to overcome the inhibitory effect of MEKi
- T cell proliferation, anti-CD3 stimulation (human CD8+ T cells): reduced the stimulatory effect of anti-CD3
- frequency of DCs expressing surface markers of DC maturation and activation [3]: enhanced the frequency of DCs expressing these surface markers
- serum IL-10 level [4]: decreased
- tumor growth (colorectal tumors): highly effective as a single agent therapy at preventing tumor growth
- tumor growth [5]: highly effective as a single agent therapy at preventing tumor growth

Compound: O=C(c1ccc(F)c(F)c1Nc1ccc(I)cc1F)N1CC(O)([C@@H]2CCCCN2)C1 [GDC-0973, Methanone, [3,4-difluoro-2-[(2-fluoro-4-iodophenyl)amino]phenyl][3-hydroxy-3-(2S)-2-piperidinyl-1-azetidinyl]-]
- cell surface expression of MHC-I [1]: upregulated
- cell surface expression of MHC-I [2]: upregulated
- cell surface expression of MHC-I [6]: not upregulated
- T cell receptor induced proliferation, anti-CD3 stimulation (human CD8+ T cells): nearly complete inhibition
- T cell activation, co-stimulation with anti-CD3 and anti-CD28 (human CD8+ T cells): sufficient to overcome the inhibitory effect of MEKi
- T cell proliferation, anti-CD3 stimulation (human CD8+ T cells): reduced the stimulatory effect of anti-CD3
- frequency of cells expressing CD83, MHC-II and CD86 ([3]; 1 μM, anti-CD40, 48 hours, compared to vehicle): increased
- frequency of DCs expressing surface markers of DC maturation and activation [3]: enhanced the frequency of DCs expressing these surface markers
- % TGI ([7]; 0.5 mg/kg orally daily for 21 days): −8%
- % TGI ([7]; 1.0 mg/kg orally daily for 21 days): −16%
- % TGI ([7]; 2.0 mg/kg orally daily for 21 days): −21%
- % TGI ([7]; 3.0 mg/kg orally daily for 21 days): −4%
- % TGI ([7]; 4.0 mg/kg orally daily for 21 days): 27%
- % TGI ([7]; 5.0 mg/kg orally daily for 21 days): 55%
- % TGI ([7]; 6.0 mg/kg orally daily for 21 days): 72%
- % TGI ([7]; 7.5 mg/kg orally daily for 21 days): 87%
- tumor growth ([7]; increasing doses, maximal inhibition at 7.5 mg/kg at 20 days post-treatment): suppressed tumor growth
- % CR [8]: 0%
- % PR [8]: 10%
- % TGI [8]: 71%
- TTP5X [8]: 21.5 days
- DC surface activation markers MHC-II, CD80, CD86 [9]: enhanced
- DC surface expression of MHC-I [9]: enhanced
